Experimental data: US20210189342A1, “COMPOSITIONS AND METHODS FOR MODULATING MONOCYTE AND MACROPHAGE INFLAMMATORY PHENOTYPES AND IMMUNOTHERAPY USES THEREOF” (Verseau Therapeutics, Inc., priority 2018, published 2021)

tested on: CCR5; assay: siRNA dose response, CCR5 mRNA knockdown, Dual-Glo Luciferase Assay; format: cell-based, human; conditions: Hepal-6 + reporter plasmid, 24 hr
Protocol: (§1) Dose response curves for siRNAs were generated in vitro using a variety of cell lines according to Table 4.
(§2) Briefly, cells were seeded in 96-well plates and reverse transfected with siRNA, Lipofectamine® 2000 (0.5 uL/well; ThermoFisher), and, in some cases, a reporter plasmid (50 ng/well). The reporter plasmid (psiCHECK™-2, Promega) encoded both firefly luciferase and the gene of interest fused to renilla luciferase; silencing of the gene of interest results in proportional silencing of renilla luciferase but leaves firefly luciferase unaffected as an internal control.
(§3) After 24 hr incubation at 37° C., mRNA knockdown was measured using an endpoint assay. For targets without a reporter plasmid, a branched DNA (bDNA) assay was performed according to the manufacturer's instructions (QuantiGene® Singleplex Gene Expression Assay, ThermoFisher) to measure both the target gene and GAPDH (housekeeping gene) mRNA. Data are plotted as siRNA concentration (nM) vs. remaining mRNA (ratio of target gene to GAPDH, normalized to mock siRNA-transfected cells). For targets with a reporter plasmid, a Dual-Glo® Luciferase Assay was performed according to the manufacturer's instructions (Promega) to measure firefly and renilla luciferase expression. Data are plotted as siRNA concentration (nM) vs. remaining mRNA (ratio of renilla to firefly luminescence, normalized to mock siRNA-transfected cells).
(§4) For all dose response curves, a 4-parameter logistic model was applied to determine the IC50 of each siRNA sequence (Table 5 and FIG. 2). Data shown in Table 5 and FIG. 2 represent the mean of quadruplicates, +/−standard deviation.

In order of falling IC50:
1. XD-10558: siRNA targeting CCR5 (sense 5'-gcAcAuAcuuGAGacuGuudTsdT-3'; antisense 5'-AAcAGUCUcAAGuAUGUGCdTsdT-3'; as printed in the source, key not given here)  1050 pM
2. XD-10559: siRNA targeting CCR5 (sense 5'-gcAAcGAAGGGAAauGucudTsdT-3'; antisense 5'-AGAcAUUUCCCUUCGUUGCdTsdT-3'; as printed in the source, key not given here)  1020 pM
3. XD-10553: siRNA targeting CCR5 (sense 5'-agGuAuGGuuAAuaAGuuudTsdT-3'; antisense 5'-AAACUuAUuAACcAuACCUdTsdT-3'; as printed in the source, key not given here)  361 pM
4. XD-10552: siRNA targeting CCR5 (sense 5'-cauuAAAGAuAGucAucuudTsdT-3'; antisense 5'-AAGAUGACuAUCUUuAAUGdTsdT-3'; as printed in the source, key not given here)  70 pM
5. XD-10551: siRNA targeting CCR5 (sense 5'-ccAuAcAGucAGuaucAAudTsdT-3'; antisense 5'-AUUGAuACUGACUGuAUGGdTsdT-3'; as printed in the source, key not given here)  46 pM
6. XD-10550: siRNA targeting CCR5 (sense 5'-ggAAcAAGAuGGAuuAucAdTsdT-3'; antisense 5'-UGAuAAUCcAUCUUGUUCCdTsdT-3'; as printed in the source, key not given here)  17 pM

tested on: DOCK2; assay: siRNA dose response, DOCK2 mRNA knockdown, bDNA Assay; format: cell-based, human; conditions: THP-1, 24 hr
Protocol: as §1, §2, §3, §4

In order of falling IC50:
1. XD-09691: siRNA targeting DOCK2 (sense 5'-ggGGAuAccucAuaAAGcAdTsdT-3'; antisense 5'-UGCUUuAUGAGGuAUCCCCdTsdT-3'; RNA with 2'-O-methyl and phosphorothioate modifications, case key not given here, as printed in the source, key not given here)  11700 pM
2. XD-09696: siRNA targeting DOCK2 (sense 5'-cucAuuGcAGAccgGAAAudTsdT-3'; antisense 5'-AUUUCCGGUCUGcAAUGAGdTsdT-3'; RNA with 2'-O-methyl and phosphorothioate modifications, case key not given here, as printed in the source, key not given here)  1780 pM
3. XD-09698: siRNA targeting DOCK2 (sense 5'-ggucGAGGAcAuuauuuucdTsdT-3'; antisense 5'-GAAAAuAAUGUCCUCGACCdTsdT-3'; as printed in the source, key not given here)  1360 pM
4. XD-09697: siRNA targeting DOCK2 (sense 5'-accGGAAAuuucAgcAuuudTsdT-3'; antisense 5'-AAAUGCUGAAAUUUCCGGUdTsdT-3'; RNA with 2'-O-methyl and phosphorothioate modifications, case key not given here, as printed in the source, key not given here)  556 pM
5. XD-09694: siRNA targeting DOCK2 (sense 5'-ccAucuGcGAuucauGuuudTsdT-3'; antisense 5'-AAAcAUGAAUCGcAGAUGGdTsdT-3'; RNA with 2'-O-methyl and phosphorothioate modifications, case key not given here, as printed in the source, key not given here)  403 pM

tested on: CD53; assay: siRNA dose response, CD53 mRNA knockdown, bDNA Assay; format: cell-based, human; conditions: THP-1, 24 hr
Protocol: as §1, §2, §3, §4

In order of falling IC50:
1. XD-09203: siRNA targeting CD53 (sense 5'-gcAuGGGcucuAucAAGGAdTsdT-3'; antisense 5'-UCCUUGAuAGAGCCcAUGCdTsdT-3'; as printed in the source, key not given here)  178 pM
2. XD-09208: siRNA targeting CD53 (sense 5'-uuuAuuAGAGGGccuuAuudTsdT-3'; antisense 5'-AAuAAGGCCCUCuAAuAAAdTsdT-3'; as printed in the source, key not given here)  162 pM
3. XD-09205: siRNA targeting CD53 (sense 5'-acuAAuAucuGAGcAucuudTsdT-3'; antisense 5'-AAGAUGCUcAGAuAUuAGUdTsdT-3'; as printed in the source, key not given here)  132 pM
4. XD-09201: siRNA targeting CD53 (sense 5'-gcAuGAGuAGcuugAAAcudTsdT-3'; antisense 5'-AGUUUcAAGCuACUcAUGCdTsdT-3'; as printed in the source, key not given here)  67 pM
5. XD-09209: siRNA targeting CD53 (sense 5'-auuGAuGuGuucuaAGucudTsdT-3'; antisense 5'-AGACUuAGAAcAcAUcAAUdTsdT-3'; as printed in the source, key not given here)  41 pM
6. XD-09207: siRNA targeting CD53 (sense 5'-agGGcAAGAucucauuucAdTsdT-3'; antisense 5'-UGAAAUGAGAUCUUGCCCUdTsdT-3'; as printed in the source, key not given here)  38 pM

tested on: LRRC25; assay: siRNA dose response, LRRC25 mRNA knockdown, Dual-Glo Luciferase Assay; format: cell-based, human; conditions: Hepa1-6 + reporter plasmid, 24 hr
Protocol: as §1, §2, §3, §4

In order of falling IC50:
1. XD-09250: siRNA targeting LRRC25 (sense 5'-gccAGAGGAAcGccAGcGAdTsdT-3'; antisense 5'-UCGCUGGCGUUCCUCUGGCdTsdT-3'; as printed in the source, key not given here)  15000 pM
2. XD-09251: siRNA targeting LRRC25 (sense 5'-gccGucGcuuuuccAGcAudTsdT-3'; antisense 5'-AUGCUGGAAAAGCGACGGCdTsdT-3'; RNA with 2'-O-methyl and phosphorothioate modifications, case key not given here, as printed in the source, key not given here)  2770 pM
3. XD-09256: siRNA targeting LRRC25 (sense 5'-ccGAcuAuGAGAAcAuGuudTsdT-3'; antisense 5'-AAcAUGUUCUcAuAGUCGGdTsdT-3'; as printed in the source, key not given here)  601 pM
4. XD-09259: siRNA targeting LRRC25 (sense 5'-cuucGAGGcuGAugAGGcudTsdT-3'; antisense 5'-AGCCUcAUcAGCCUCGAAGdTsdT-3'; RNA with 2'-O-methyl and phosphorothioate modifications, case key not given here, as printed in the source, key not given here)  293 pM
5. XD-09258: siRNA targeting LRRC25 (sense 5'-caAuAAAuGcuucgAGGcudTsdT-3'; antisense 5'-AGCCUCGAAGcAUUuAUUGdTsdT-3'; RNA with 2'-O-methyl and phosphorothioate modifications, case key not given here, as printed in the source, key not given here)  33 pM

tested on: FERMT3; assay: siRNA dose response, FERMT3 mRNA knockdown, bDNA Assay; format: cell-based, human; conditions: THP-1, 24 hr
Protocol: as §1, §2, §3, §4

In order of falling IC50:
1. XD-09705: siRNA targeting FERMT3 (sense 5'-guucccGAuGuuAacGucudTsdT-3'; antisense 5'-AGACGUuAAcAUCGGGAACdTsdT-3'; RNA with 2'-O-methyl and phosphorothioate modifications, case key not given here, as printed in the source, key not given here)  6750 pM
2. XD-09701: siRNA targeting FERMT3 (sense 5'-ggcuGcGcuucAAguAcuAdTsdT-3'; antisense 5'-uAGuACUUGAAGCGcAGCCdTsdT-3'; RNA with 2'-O-methyl and phosphorothioate modifications, case key not given here, as printed in the source, key not given here)  921 pM
